How the values were obtained:
[1] = target: T1, B1R receptor of the rat (rB1R) (Rattus norvegicus, UniProt P97583); assay: Functional investigation on the bradykinin receptor 1 (B1R), FLIPR Ca2+ assay, rB1R cells; type: cell-based
T1 construct: expressed in transfected cells; host or cells: CHO K1 cells
T1 sequence (P97583 1-337): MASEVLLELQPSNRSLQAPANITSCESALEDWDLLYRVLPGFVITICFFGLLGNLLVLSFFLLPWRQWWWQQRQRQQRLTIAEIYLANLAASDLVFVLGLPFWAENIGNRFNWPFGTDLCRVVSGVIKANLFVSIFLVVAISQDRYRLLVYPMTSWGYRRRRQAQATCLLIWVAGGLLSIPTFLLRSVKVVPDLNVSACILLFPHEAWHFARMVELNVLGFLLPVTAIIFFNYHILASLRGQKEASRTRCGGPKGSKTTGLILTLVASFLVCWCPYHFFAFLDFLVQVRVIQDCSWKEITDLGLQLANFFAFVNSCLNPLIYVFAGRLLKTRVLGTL
Method: (§1) The agonistic or antagonistic action of substances can be quantified on the bradykinin receptor 1 (B1R) of the human and rat species with ectopically expressing cell lines (CHO K1 cells) and with the aid of a Ca^2+-sensitive dyestuff (Fluo-4) in a fluorescent imaging plate reader (FLIPR). The figure in % activation is based on the Ca^2+ signal after addition of Lys-Des-Arg^9-bradykinin (0.5 nM) or Des-Arg^9-bradykinin (100 nM). Antagonists lead to a suppression of the Ca^2+ inflow after addition of the agonist. % inhibition compared with the maximum achievable inhibition is stated.
(§2) The agonistic or antagonistic action of substances can be determined on the bradykinin receptor 1 (B1R) of the human and rat species with the following assay. In accordance with this assay, the Ca^2+ inflow through the channel is quantified with the aid of a Ca^2+-sensitive dyestuff (type Fluo-4, Molecular Probes Europe BV, Leiden Holland) in a fluorescent imaging plate reader (FLIPR, Molecular Devices, Sunnyvale, USA).
(§3) Chinese hamster ovary cells (CHO K1 cells) transfected stably with the human B1R gene (hB1R cells) or the B1R gene of the rat (rB1R cells) are used. For functional studies, these cells are plated out on black 96-well plates with a clear base (BD Biosciences, Heidelberg, Germany or Greiner, Frickenhausen, Germany) in a density of 20,000-35,000 cells/well. The cells are left overnight at 37° C. and 5% CO2 in culture medium (hB1R cells: Nutrient Mixture Ham's F12, Gibco Invitrogen GmbH, Karlsruhe, Germany or DMEM, Sigma-Aldrich, Taufkirchen, Germany; rB1R cells: D-MEM/F12, Gibco Invitrogen GmbH, Karlsruhe, Germany) with 10 vol. % FBS (foetal bovine serum, Gibco Invitrogen GmbH, Karlsruhe, Germany or PAN Biotech GmbH, Aidenbach, Germany). On the following day, the cells are loaded for 60 min at 37° C. with 2.13 μM Fluo-4 (Molecular Probes Europe BV, Leiden Holland) in HBSS buffer (Hank's buffered saline solution, Gibco Invitrogen GmbH, Karlsruhe, Germany) with 2.5 mM probenecid (Sigma-Aldrich, Taufkirchen, Germany) and 10 mM HEPES (Sigma-Aldrich, Taufkirchen, Germany). The plates are then washed 2× with HBSS buffer, and HBSS buffer which additionally contains 0.1% BSA (bovine serum albumin; Sigma-Aldrich, Taufkirchen, Germany), 5.6 mM glucose and 0.05% gelatine (Merck KGaA, Darmstadt, Germany) is added. After a further incubation of 20 minutes at room temperature, the plates are inserted into the FLIPR for the Ca^2+ measurement.
(§4) Alternatively, the plates are washed with buffer A (15 mM HEPES, 80 mM NaCl, 5 mM KCl, 1.2 mM CaCl2, 0.7 mM MgSO4, 2 g/l glucose, 2.5 mM probenecid), buffer A is added and the plates are loaded with 2.5 μM Fluo-4 and 0.025% Pluronic F127 (Sigma-Aldrich, Taufkirchen, Germany). Thereafter, the cells are washed 2× with buffer A and incubated for 30 minutes at room temperature with buffer A, which additionally contains 0.05% BSA and 0.05% gelatine, and thereafter inserted into the FLIPR for the Ca^2+ measurement.
(§5) The Ca^2+-dependent fluorescence is measured here before and after addition of substances (λex=488 nm, λem=540 nm). Quantification is by measurement of the highest fluorescence intensity (FC, fluorescence counts) over time.
(§6) The FLIPR protocol consists of 2 additions of substance. Test substances (10 μM) are first pipetted on to the cells and the Ca^2+ inflow is compared with the control (hB1R: Lys-Des-Arg^9-bradykinin>=50 nM; rB1R: Des-Arg^9-bradykinin 10 μM). This gives the result in % activation based on the Ca^2+ signal after addition of Lys-Des-Arg^9-bradykinin (>=50 nM) or Des-Arg^9-bradykinin (10 μM). After incubation for 10-20 minutes, Lys-Des-Arg^9-bradykinin (hB1R) or Des-Arg^9-bradykinin (rB1R) in the concentration of the EC80 is applied and the inflow of Ca^2+ is likewise determined. Antagonists lead to a suppression of the Ca^2+ inflow. % inhibition compared with the maximum achievable inhibition is calculated.
(§7) In order to determine the IC50 value, the substances are added in various concentrations. […]

[2] = target: T2, human B1R receptor (hB1R) (Homo sapiens, UniProt P46663); assay: Functional investigation on the bradykinin receptor 1 (B1R), FLIPR Ca2+ assay, hB1R cells; type: cell-based
T2 construct: expressed in transfected cells; host or cells: CHO K1 cells
T2 sequence (P46663 1-353): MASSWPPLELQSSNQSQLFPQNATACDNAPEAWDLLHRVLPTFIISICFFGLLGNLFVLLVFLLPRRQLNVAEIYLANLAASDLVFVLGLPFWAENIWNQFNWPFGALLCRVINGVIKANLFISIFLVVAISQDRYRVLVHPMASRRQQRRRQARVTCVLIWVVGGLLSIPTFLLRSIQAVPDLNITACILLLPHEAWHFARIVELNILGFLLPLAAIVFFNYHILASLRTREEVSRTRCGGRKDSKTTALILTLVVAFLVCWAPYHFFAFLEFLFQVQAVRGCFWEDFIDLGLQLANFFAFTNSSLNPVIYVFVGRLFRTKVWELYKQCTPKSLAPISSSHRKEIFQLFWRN
Method: as §1, §2, §3, §4, §5, §6, §7

SMILES | inhibition at 10 µM [1] [%] | inhibition at 10 µM [2] [%]
COc1cc(C)c(S(=O)(=O)N(C)C(C)c2nc3cccc(C(=O)N4CCC5(CCN(Cc6ccc(C#N)cc6)CC5)CC4)c3[nH]2)c(C)c1 (stereo not drawn) [I_CC-43, N-[1-[7-[9-[(4-Cyano-phenyl)-methyl]-3,9-diazaspiro[5.5]undecane-3-carbonyl]-1H-benzoimidazol-2-yl]-ethyl]-4-methoxy-N,2,6-trimethyl-benzenesulfonic acid amide] | 98 | 85
COc1cc(C)c(S(=O)(=O)N(C)C(C)c2nc3cccc(C(=O)N4CCC5(CCN(Cc6cnn(C)c6C)CC5)CC4)c3[nH]2)c(C)c1 (stereo not drawn) [I_CC-41, N-[1-[7-[9-[(1,5-Dimethyl-1H-pyrazol-4-yl)-methyl]-3,9-diazaspiro[5.5]undecane-3-carbonyl]-1H-benzoimidazol-2-yl]-ethyl]-4-methoxy-N,2,6-trimethyl-benzenesulfonic acid amide] | 98 | 83
COc1cc(C)c(S(=O)(=O)N(C)C(C)c2nc3cccc(C(=O)N4CCC5(CCN(Cc6c(F)cccc6OC)CC5)CC4)c3[nH]2)c(C)c1 (stereo not drawn) [I_CC-34, N-[1-[7-[9-[(2-Fluoro-6-methoxy-phenyl)-methyl]-3,9-diazaspiro[5.5]undecane-3-carbonyl]-1H-benzoimidazol-2-yl]-ethyl]-4-methoxy-N,2,6-trimethyl-benzenesulfonic acid amide] | 86 | 91
COc1cc(C)c(S(=O)(=O)N(C)c2nc3ccc(C(=O)N4CCC5(CC4)CCN(c4ccncc4)C5)cc3n2C)c(C)c1 [I_CC-18, 4-methoxy-N,2,6-trimethyl-N-[1-methyl-6-(3-pyridin-4-yl-3,8-diazaspiro[4.5]decane-8-carbonyl)-1H-benzoimidazol-2-yl]-benzenesulfonic acid amide] | 48 | 39
COc1cc(C)c(S(=O)(=O)N(C)C(C)c2nc3cccc(C(=O)N4CCC5(CCN(Cc6c(F)cccc6Cl)CC5)CC4)c3[nH]2)c(C)c1 (stereo not drawn) [I_CC-40, N-[1-[7-[9-[(2-Chloro-6-fluoro-phenyl)-methyl]-3,9-diazaspiro[5.5]undecane-3-carbonyl]-1H-benzoimidazol-2-yl]-ethyl]-4-methoxy-N,2,6-trimethyl-benzenesulfonic acid amide] | 99 | 49
COc1cc(C)c(S(=O)(=O)N(C)C(C)c2nc3cccc(C(=O)N4CCC5(CC4)CCN(S(=O)(=O)c4ccc(Cl)s4)CC5)c3[nH]2)c(C)c1 (stereo not drawn) [I_CC-56, N-[1-[7-[9-[(5-Chloro-thiophen-2-yl)sulfonyl]-3,9-diazaspiro[5.5]undecane-3-carbonyl]-1H-benzoimidazol-2-yl]-ethyl]-4-methoxy-N,2,6-trimethyl-benzenesulfonic acid amide] | 101 | 15

Further lines, results first:

inhibition at 10 µM [1] [%] | inhibition at 10 µM [2] [%] | SMILES
93 | 95 | COc1cc(C)c(S(=O)(=O)N(C)Cc2nc3c(C(=O)N4CCC5(CC4)CCN(c4ccncc4)CC5)cccc3s2)c(C)c1 [I_CC-22, 4-methoxy-N,2,6-trimethyl-N-[[4-(3-pyridin-4-yl-3,9-diazaspiro[5.5]undecane-9-carbonyl)-benzothiazol-2-yl]-methyl]-benzenesulfonic acid amide]
46 | 10 | CN(Cc1nc2cccc(C(=O)N3CCC4(CC3)C(=O)NCC4c3ccncc3)c2[nH]1)C(=O)c1ccccc1Cl (stereo not drawn) [I_CC-02, 2-chloro-N-methyl-N-[[7-(4-oxo-1-pyridin-4-yl-3,8-diazaspiro[4.5]decane-8-carbonyl)-1H-benzoimidazol-2-yl]-methyl]-benzamide]
104 | 99 | COc1cc(C)c(S(=O)(=O)N(C)Cc2nc3cccc(C(=O)N4CCC5(CCN(c6ccncc6)CC5)C4)c3[nH]2)c(C)c1 [I_09, 4-methoxy-N,2,6-trimethyl-N-[[7-(8-pyridin-4-yl-3,8-diazaspiro[4.5]decane-3-carbonyl)-1H-benzoimidazol-2-yl]-methyl]-benzenesulfonic acid amide]

Reference: patent publication US8232288B2, “Substituted benzimidazoles, benzothiazoles and benzoxazoles” (Gruenenthal GmbH, priority 2009, dated 2012)
